Results from patent US20240148002A1, “BIOCIDAL COMPOSITIONS CONTAINING COPPER AND A CO-BIOCIDE” (CORNING INCORPORATED, priority 2021, published 2024).

Test system: Pseudomonas aeruginosa (P. aeruginosa)
Experiment: Minimum bactericidal concentration (MBC) test: serial dilutions in thickened Letheen Broth, plating and colony count
Format: cell-based
Parameters: key to MBC observation (contamination grade): −: no bacteria was observed on the plates; +: a trace of contamination was observed (<10 colonies); ++: light contamination was observed (>100 colonies); +++: heavy contamination was observed (continuous smear of growth)
Settings: 24 hours at 37° C.
Experimental: The minimum bactericidal concentration (MBC) values reported herein were determined using Pseudomonas aeruginosa (P. aeruginosa), which is a gram-negative pathogen that can cause severe acute and chronic infections. The MBC is the lowest biocide or biocide combination concentration that kills 100% of the tested bacteria. The cultures of P. aeruginosa were grown for 24 hours in Letheen Broth before treatment with each biocide (e.g., copper-containing glass particles or organic co-biocide) or biocide combination (e.g., copper-containing glass particles and an organic co-biocide). A stock copper-containing glass particle dispersion containing 10 wt % copper-containing glass particles and 1.5% hydoxyethylcellulose (HEC) thickener (Natrosol™ Plus 330 PA) was prepared for serial dilution in thickened Letheen Broth (Letheen Broth containing 1.5 wt % HEC thickener) to achieve the desired test concentrations. A stock organic co-biocide or biocide combination dispersion was prepared by combining 5 grams of a 1 wt % dispersion of each organic co-biocide or biocide combination in 1 wt % HEC thickener for serial dilution to achieve the desired test concentrations. 1000 μL of the dispersion of interest was added to a microcentrifuge tube (referred to as “tube 1”). Serial dilution continued with the dilution of 500 μL of the dispersion from tube 1 with 500 μL of thickened Letheen Broth (“tube 2”). Serial dilutions were continued in this manner […] (tube 3 to tube 10). Tube 11 contained 500 μL of thickened Letheen Broth as a “broth blank.” 50 μL of P. aeruginosa was transferred directly from culture into each of tubes 1-11 and the tubes were incubated at 37° C. for 24 hours. At the end of the incubation period, each tube 1-11 was plated and the plates were incubated at 37° C. for 24 hours. At the end of the incubation period, the plates were removed and the colonies on each plate were counted and recorded.
The number of colonies remaining after treatment was determined for serial dilutions of 3 different organic biocides alone and in combination with copper-containing glass particles. Example 1A was treated with serial dilutions of Nuosept® 95 Preservative, which contains a mixture of 5-hydroxymethyl-1-aza-3,7-dioxabicyclo-(3.3.0) octane, 5-hydroxymethoxymethyl-1-aza-3,7-dioxabicyclo-(3.3.0) octane, and 5-hydroxypoly(methyleneoxy)methyl-1-aza-3,7-dioxabicyclo-(3.3.0) octane. Examples 1B and 1C were treated with serial dilutions of a 50:50 mixture and a 25:75 mixture, respectively, of Nuosept® 95 Preservative and copper-containing glass particles. Example 2A was treated with serial dilutions of benzisothiazolinone (BIT). Examples 2B and 2C were treated with serial dilutions of a 50:50 mixture and a 25:75 mixture, respectively, of BIT and copper-containing glass particles. Example 3A was treated with serial dilutions of Bronopol. Examples 3B and 3C were treated with serial dilutions of a 50:50 mixture and a 25:75 mixture, respectively, of Bronopol and copper-containing glass particles. Examples 4A and 4B were duplicate samples treated with serial dilutions of the copper-containing glass particles.
For each Example 1A-C, 2A-C, 3A-C, and 4A-B, 1000 μL of the dispersion of interest, the stock organic co-biocide dispersion, the stock copper-containing glass particle dispersion, or the indicated ratio of each dispersion, was added to a microcentrifuge tube (referred to as “tube 1”). 500 μL of the dispersion from tube 1 was diluted with 500 μL of thickened Letheen Broth (“tube 2”). Serial dilutions with thickened Letheen Broth were prepared up to tube 10. Tube 11 contained 500 μL of thickened Letheen Broth as a “broth blank.” 50 μL of P. aeruginosa was transferred directly from culture into each of tubes 1-11 and the tubes were incubated at 37° C. for 24 hours. At the end of the incubation period, each tube 1-11 was plated and the plates were incubated 37° C. for 24 hours. […]

[1] = Biocide Conc. 3.91 ppm (tube 10)
[2] = Biocide Conc. 7.81 ppm (tube 9)
[3] = Biocide Conc. 15.63 ppm (tube 8)
[4] = Biocide Conc. 31.25 ppm (tube 7)
[5] = Biocide Conc. 62.5 ppm (tube 6)
[6] = Biocide Conc. 1000 ppm (tube 2)
[7] = Biocide Conc. 2000 ppm (tube 1)

Row | Compound | MBC observation (contamination grade) [1] | colony count [1] | MBC observation (contamination grade) [2] | colony count [2] | MBC observation (contamination grade) [3] | colony count [3] | MBC observation (contamination grade) [4] | colony count [4] | MBC observation (contamination grade) [5] | colony count [5] | MBC observation (contamination grade) (Biocide Conc. 125 ppm (tube 5)) | colony count (Biocide Conc. 125 ppm (tube 5)) | MBC observation (contamination grade) (Biocide Conc. 250 ppm (tube 4)) | colony count (Biocide Conc. 250 ppm (tube 4)) | MBC observation (contamination grade) (Biocide Conc. 500 ppm (tube 3)) | colony count (Biocide Conc. 500 ppm (tube 3)) | MBC observation (contamination grade) [6] | colony count [6] | MBC observation (contamination grade) [7] | colony count [7]
1 | O=c1[nH]sc2ccccc12 [Ex. 2A, benzisothiazolinone] | +++ | (>1000) colonies | +++ | (>1000) colonies | +++ | (>1000) colonies | ++ (light contamination was observed (>100 colonies)) | 513 colonies | + (a trace of contamination was observed (<10 colonies)) | 35 colonies | − | 0 colonies | − | 0 colonies | − | 0 colonies | − | 0 colonies | − | 0 colonies
2 | O=[N+]([O-])C(Br)(CO)CO [Ex. 3A, Bronopol] | +++ | (>1000) colonies | +++ | (>1000) colonies | − | 0 colonies | − | 0 colonies | − | 0 colonies | − | 0 colonies | − | 0 colonies | − | 0 colonies | − | 0 colonies | − | 0 colonies
